Laboratory results published in patent US6248747A, “5-(heterocyclic alkyl)-6-aryl-dihydropyrimidines” (Synaptic Pharmaceutical Corporation, priority 1999, dated 2001).
Read-outs that look alike come from different tables or passages of the source.

Legend:
[1] = cited from earlier work
[2] = target: T1, cloned human α1a receptor (Homo sapiens, UniProt P25100); test: Radioligand binding affinity at cloned human α1a receptor ([3H]prazosin); conditions: LM(tk-) cell membranes, SEM and n
T1 construct: The entire coding region of α1A (1719 bp); expressed in transfected cells; host or cells: LM(tk-) cells, membranes
T1 sequence (P25100 1-572): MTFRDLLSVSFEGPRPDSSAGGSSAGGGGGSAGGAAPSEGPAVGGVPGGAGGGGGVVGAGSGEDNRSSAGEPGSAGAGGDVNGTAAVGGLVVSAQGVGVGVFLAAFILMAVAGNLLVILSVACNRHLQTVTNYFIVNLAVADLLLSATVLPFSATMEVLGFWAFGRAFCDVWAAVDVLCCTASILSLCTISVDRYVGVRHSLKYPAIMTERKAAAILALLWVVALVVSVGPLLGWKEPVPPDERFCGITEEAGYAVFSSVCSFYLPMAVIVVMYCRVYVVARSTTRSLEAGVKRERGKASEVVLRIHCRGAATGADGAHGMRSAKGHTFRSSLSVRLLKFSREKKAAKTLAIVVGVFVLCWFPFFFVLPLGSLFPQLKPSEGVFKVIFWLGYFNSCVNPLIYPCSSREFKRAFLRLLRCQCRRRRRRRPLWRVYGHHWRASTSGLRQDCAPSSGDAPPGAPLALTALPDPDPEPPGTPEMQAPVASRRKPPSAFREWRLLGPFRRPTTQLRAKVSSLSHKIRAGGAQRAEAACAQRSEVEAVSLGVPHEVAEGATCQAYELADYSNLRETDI
Experimental: (§1) The protocols for these experiments are given below.
(§2) These cell lines were prepared by transfecting the cloned cDNA or cloned genomic DNA or constructs containing both genomic DNA and cDNA encoding the human α-adrenergic receptors as follows:
(§3) Radioligand Binding Assays: Transfected cells from culture flasks were scraped into 5 ml of 5 mM Tris-HCl, 5 mM EDTA, pH 7.5, and lysed by sonication. The cell lysates were centrifuged at 1000 rpm for 5 min at 4° C., and the supernatant was centrifuged at 30,000×g for 20 min at 4° C. The pellet was suspended in 50 mM Tris-HCl, 1 mM MgCl2, and 0.1% ascorbic acid at pH 7.5. […] Nonspecific binding was determined in the presence of 10 μM phentolamine. The reaction was stopped by filtration through GF/B filters using a cell harvester.

[3] = target: T2, cloned human α1c receptor (Homo sapiens, UniProt P35348); test: Radioligand binding affinity at cloned human α1c receptor ([3H]prazosin); conditions: LM(tk-) cell membranes, SEM and n
T2 construct: The entire coding region of α1C (1401 bp); expressed in transfected cells; host or cells: LM(tk-) cells, membranes; vector EXJ.RH (derived from pCEXV-3)
T2 sequence (P35348 1-466): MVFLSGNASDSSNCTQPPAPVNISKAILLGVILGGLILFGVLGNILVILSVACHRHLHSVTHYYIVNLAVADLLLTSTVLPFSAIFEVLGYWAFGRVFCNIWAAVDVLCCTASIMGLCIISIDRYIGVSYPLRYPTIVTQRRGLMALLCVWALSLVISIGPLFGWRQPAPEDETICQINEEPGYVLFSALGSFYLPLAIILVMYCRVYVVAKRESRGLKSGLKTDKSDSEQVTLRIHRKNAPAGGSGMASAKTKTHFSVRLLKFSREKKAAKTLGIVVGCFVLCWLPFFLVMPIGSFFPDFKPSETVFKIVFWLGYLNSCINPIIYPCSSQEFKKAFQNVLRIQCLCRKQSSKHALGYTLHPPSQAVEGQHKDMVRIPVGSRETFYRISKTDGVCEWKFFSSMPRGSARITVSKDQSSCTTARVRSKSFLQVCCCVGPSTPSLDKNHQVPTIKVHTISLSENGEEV
Experimental: as §1, §2
The construct involved ligating three partial overlapping fragments: a 5' 0.6 kb HincII genomic clone, a central 1.8 EcoRI hippocampal cDNA clone, and a 3' 0.6 Kb PstI genomic clone. The hippocampal cDNA fragment overlaps with the 5' and 3' genomic clones so that the HincII and PstI sites at the 5' and 3' ends of the cDNA clone, respectively, were utilized for ligation. This full-length clone was cloned into the KpnI site of the expression vector, using the 5' and 3' KpnI sites of the fragment, derived from vector (i.e., pBluescript) and 3'-untranslated sequences, respectively. Stable cell lines were selected as described above.
as §3, with “The reaction was stopped by filtration through GF/B filters using a cell harvester.” left out

[4] = target: T3, cloned human α1b receptor (Homo sapiens, UniProt P35368); test: Radioligand binding affinity at cloned human α1b receptor ([3H]prazosin); conditions: LM(tk-) cell membranes, SEM and n
T3 construct: The entire coding region of α1B (1563 bp); expressed in transfected cells; host or cells: LM(tk-) cells, membranes; vector pCEXV-3
T3 sequence (P35368 1-520): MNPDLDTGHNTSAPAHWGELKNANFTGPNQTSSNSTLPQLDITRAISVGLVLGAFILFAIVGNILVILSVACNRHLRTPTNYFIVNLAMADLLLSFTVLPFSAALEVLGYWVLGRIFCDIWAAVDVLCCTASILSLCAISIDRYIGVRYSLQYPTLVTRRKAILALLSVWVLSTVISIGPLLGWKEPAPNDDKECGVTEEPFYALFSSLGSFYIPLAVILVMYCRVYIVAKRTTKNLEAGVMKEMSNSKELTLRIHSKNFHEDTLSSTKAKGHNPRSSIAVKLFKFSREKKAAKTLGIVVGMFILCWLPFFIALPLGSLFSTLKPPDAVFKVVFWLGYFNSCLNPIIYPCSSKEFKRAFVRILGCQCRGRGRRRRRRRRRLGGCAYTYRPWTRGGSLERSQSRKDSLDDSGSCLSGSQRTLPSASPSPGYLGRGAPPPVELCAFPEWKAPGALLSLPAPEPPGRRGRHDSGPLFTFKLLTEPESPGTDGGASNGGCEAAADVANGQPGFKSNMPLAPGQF
Experimental: as §1, §2
The construct involved ligating the full-length containing EcoRI brainstem cDNA fragment from λ ZapII into the expression vector. Stable cell lines were selected as described above.
as §3

[5] = system: benign prostatic hyperplasia (BPH); conditions: literature report (phenoxybenzamine: M. Caine et al. 1976); cited from earlier work

Compound	side effects ([1]; background statement)	usefulness in treating BPH [5]	other results
Clc1cccc(Cl)c1N=C1NCCN1 [clonidine]	dry mouth and sedation	–	–
CCC1=C(C(N)=O)C(c2ccc(F)c(F)c2)N(C(=O)NCCCN2CCC(C(=O)OC)(c3ccccc3)CC2)C(=O)N1 (single isomer, unassigned; (+)) [Example 20, (+)-5-Carboxamido-6-(3,4-difluorophenyl)-4-ethyl-1-{N-[3-(4-methoxycarbonyl-4-phenylpiperidin-1-yl)propyl]}carboxamido-2-oxo-1,2,3,6-tetrhydropyrimidine]	–	–	hα1a pKi [2]: 6.46; hα1c pKi [3]: 9.68; hα1b pKi [4]: 6.59
CC(COc1ccccc1)N(CCCl)Cc1ccccc1 (stereo not shown) [phenoxybenzamine]	significant side effects such as dizziness and asthenia	useful in relieving the symptoms of BPH	–
COc1cc2nc(N3CCN(C(=O)c4ccco4)CC3)nc(N)c2cc1OC [prazosin]	–	useful for treating BPH	side effects ([1]; in vivo): untoward side effects
COc1cc2nc(N3CCN(C(=O)C4CCCO4)CC3)nc(N)c2cc1OC (stereo not shown) [terazosin]	untoward side effects	useful for treating BPH	–
